Values after ≈ are worked out from the molar mass of the structure shown. Where two headings read alike, the source gives them in different places.
What was measured:
[1] = Stability test: changes of related substances over 6 months; assay type: physicochemical
Text: iii. Compared with the sample of crystal Form I of dezocine, the new crystal form of dezocine prepared according to the present application has better stability, and changes of the related substances within the new crystal form of dezocine over 6 months are as follows: […]

[2] = Solubility test in 0.1 mol/L hydrochloric acid solution; assay type: physicochemical; conditions: for solubility: 50 mg sample
[3] = relative to Dolantin; cited from earlier work

Structure (SMILES) | Related substances ([1]; 0 days) [%] | Related substances ([1]; 1 month) [%] | Related substances ([1]; 3 months) [%] | Related substances ([1]; 6 months) [%] | solubility [2] [g/mL] | Analgesic intensity, onset time, duration of action and maximum analgesic effect, stronger than those of Dolantin [3] | Solubility increase compared with crystal Form I of dezocine [2] | solubility ([2]; simulated gastric fluid, thermodynamic from solid, read-out: Solubility) [g/mL]
C[C@@]12CCCCC[C@@H](Cc3ccc(O)cc31)[C@@H]2N (relative stereo) [Example 3, (−)-[5R-(5α,11α,13S*)]-13-amino-5,6,7,8,9,10,11,12-octahydro-5-methyl-5,11-methanobenzocy clodecen-3-ol] | 0.04 | 0.05 | 0.8 | 0.10 | – | – | – | –
C[C@@]12CCCCC[C@@H](Cc3ccc(O)cc31)[C@@H]2N (single isomer, unassigned) [Crystal Form I of dezocine, (−)-[5R-(5α,11α,13S*)]-13-amino-5,6,7,8,9,10,11,12-octahydro-5-methyl-5,11-methanobenzocy clodecen-3-ol, reference compound] | 0.08 | 0.15 | 0.21 | 0.28 | 0.025 (≈ 102 mM) | – | – | –
C[C@@]12CCCCC[C@@H](Cc3ccc(O)cc31)[C@@H]2N (relative stereo) [Example 1, (−)-[5R-(5α,11α,13S*)]-13-amino-5,6,7,8,9,10,11,12-octahydro-5-methyl-5,11-methanobenzocy clodecen-3-ol] | 0.06 | 0.07 | 0.10 | 0.13 | – | – | – | –
C[C@@]12CCCCC[C@@H](Cc3ccc(O)cc31)[C@@H]2N (relative stereo) [Example 2, (−)-[5R-(5α,11α,13S*)]-13-amino-5,6,7,8,9,10,11,12-octahydro-5-methyl-5,11-methanobenzocy clodecen-3-ol] | 0.07 | 0.09 | 0.10 | 0.12 | – | – | – | –
C[C@@]12CCCCC[C@@H](Cc3ccc(O)cc31)[C@@H]2N (relative stereo) [Dezocine, (−)-[5R-(5α,11α,13S*)]-13-amino-5,6,7,8,9,10,11,12-octahydro-5-methyl-5,11-methanobenzocy clodecen-3-ol] | – | – | – | – | – | 5-9 times | – | –
C[C@@]12CCCCC[C@@H](Cc3ccc(O)cc31)[C@@H]2N (relative stereo) [Example 4, (−)-[5R-(5α,11α,13S*)]-13-amino-5,6,7,8,9,10,11,12-octahydro-5-methyl-5,11-methanobenzocy clodecen-3-ol] | 0.06 | 0.08 | 0.10 | 0.12 | – | – | – | –
C[C@@]12CCCCC[C@@H](Cc3ccc(O)cc31)[C@@H]2N (relative stereo) [Example 5, (−)-[5R-(5α,11α,13S*)]-13-amino-5,6,7,8,9,10,11,12-octahydro-5-methyl-5,11-methanobenzocy clodecen-3-ol] | 0.04 | 0.06 | 0.07 | 0.09 | – | – | – | –
C[C@@]12CCCCC[C@@H](Cc3ccc(O)cc31)[C@@H]2N (single isomer, unassigned) [Crystal Form II of dezocine, (−)-[5R-(5α,11α,13S*)]-13-amino-5,6,7,8,9,10,11,12-octahydro-5-methyl-5,11-methanobenzocy clodecen-3-ol] | – | – | – | – | – | – | about 32% | 0.033 (≈ 134 mM)
